{"source": "patent US11180486B2", "about": "“Indolylkojyl methane analogues, process of preparation thereof and use as inhibitor of cancer cells invasion and metastasis” (Council of Scientific & Industrial Research, priority 2017, dated 2021)", "key": {"E-cadherin": {"test_system": "E-cadherin", "test": "Immunoblotting, expression of E-cadherin", "assay_type": "cell-based, human", "conditions": "MDA-MB-231 cells; dose dependent", "method": "Immunoblotting. MDA-MB-231 and MCF7 cells (0.5×10^6) were plated in six well plates for overnight in a humidified CO2 incubator and then exposed to varying concentrations of 5 (50, 100 and 200 nM) for 24 h along with vehicle (dose dependent study) and 200 nM of 5 for various time points like; 0, 6, 12, 24 and 48 h (time dependent study). Cells were then harvested, washed with chilled PBS and lysed with lysis buffer (HEPES 1 mM, KCl 60 mM, NP-40 0.3%, EDTA 1 mM, DTT 1 mM, sodium orthovanadate 1 mM, PMSF 0.1 mM and cocktail protease inhibitor). The cell extractions were centrifuged at 12,000 rpm for 10 min at 4° C. Protein concentration was measured by the standard Bradford method. An equal amount (20 μg) of protein from each sample was subjected to SDS-PAGE, and proteins were transferred to PVDF membranes (PALL), blocked with 5% (w/v) non-fat milk in PBS containing 0.1% Tween-20, probed with relevant antibodies (1:1000 dilution) for 3 h at room temperature or overnight at 4° C., and subsequently washed and probed with species-specific secondary antibodies coupled to horseradish peroxidase. Immunoreactive proteins were detected by Enhanced Chemiluminescence Plus (Thermo) (Rah et al., 2012, PloS one, 7(9), p.e44039.)."}, "[1]": {"test_system": "normal breast epithelial (fR2) cells", "test": "Cell viability (MTT) assay, normal cells", "assay_type": "cell-based, human", "method": "Cell Culture and Reagents. The cell lines used in this study were procured from American Type Culture Collection (ATCC), Manassas, USA. MCF7, T47D and fR2 cells were cultured in RPMI-1640 medium, whereas the MDA-MB-231 cells were grown in Leibovitz's (L-15) medium supplemented with 10% fetal bovine serum (Gibco) and 1% penicillin/streptomycin (Sigma) in a humidified CO2 incubator (New Brunswick Galaxy 170 R) with 5% CO2. Reagents such as phenylmethylsulfonyl fluoride (PMSF), dithiothreitol (DTT), DMSO, crystal violet, and Bradford's reagent were purchased from Sigma-Aldrich. Protease inhibitor cocktail was procured from Roche. The antibodies for human GRP78, Par-4, MMP-2, MMP-9, NF-kB, E-cadherin and TIMP-1 were procured from Santa-Cruz Biotechnology. The β-actin antibody and the secondary antibodies such as anti-rabbit IgG and anti-mouse IgG were procured from Sigma-Aldrich.\nCell Viability Assay. The cell viability was determined by standard MTT assay method. […] The amount of coloured formazan derivatives formed was measured by taking optical density (OD) using a microplate reader (TECAN, Infinite M200 Pro) at 570 nm and the percentage cell viability was calculated. The IC50 values were calculated using GraphPad Prism software (Version 5.0). […]"}, "[2]": {"test_system": "mouse mammary carcinoma (4T1) cells", "assay_type": "in vivo", "method": "In Vivo Anti-Tumor and Anti-Metastatic Efficacy Studies. To evaluate the antitumor and antimetastatic effect of 5 in vivo, healthy female Balb/c mice (b.w. 18-23 g) were taken. The experimental protocols were approved by the Institutional Animal Ethics Committee, CPCSEA, of Indian Institute of Integrative Medicine, Jammu. The animals were maintained at 22° C. with a 12 h light-dark cycle and free access to feed and water inside the institutional animal house. Proper care was taken to maintain them in a healthy condition and to avoid any risk of possible pathogenic contaminations. For subcutaneous implantation, the mice were randomized into two groups of 5 mice per group and 1.5 million mouse mammary carcinoma (4T1) cells in serum free RPMI media were injected subcutaneously into the mammary fat pad of each mouse. Either 1 week after the tumor cell implantation or when the tumor volume reached ˜150 mm^3, mice were injected intraperitoneally with either normal saline (NS) or parent compound 1 (100 mg/kg, b.w.) or 5 (30 mg/kg, b.w.) in each alternate days for two weeks. Tumor size was recorded on each alternate days post-cell injection and body weights were recorded once per week. Mice were sacrificed on the 15th day of treatment initiation and tumors were incised for its measurement. Metastatic lung nodules were counted using a dissecting microscope. Lungs were then minced into fine pieces, suspended in medium containing collagenase and kept in 37° C. incubator with vigorous shaking for 2 h. The suspension was then filtered with the help of 70 μm cell strainer (BD, USA) to get the single cell suspension. Then, the suspension was serially diluted for 3-4 times in selection medium containing 6-thioguanine, for the selection of 4T1 cells. Each dilution containing the lung cell suspension was then plated into individual petridishes and incubated at 37° C. and 5% CO2 for the growing of 4T1 cell colonies. After 15 days of incubation, cells were washed with PBS, fixed with methanol and stained with 0.2% crystal violet solution for 1 h. Images of the 4T1 colonies were observed, counted and photographed under an inverted microscope at 20× magnification."}, "MDA-MB-231 cells": {"test_system": "MDA-MB-231 cells", "test": "Drug potentiation, colony formation assay", "assay_type": "cell-based, human", "method": "Colony Formation Assay. The experiment was performed according to the pre-standardized protocol (Amin et al., 2015, Mol. Carcinog). Accordingly, MDA-MB-231 cells were seeded in 6 well plates at a density of 1×10^3 cells/ well and incubated for 5 days by giving treatment with vehicle, compound 5, doxorubicin alone and/or combination of compound 5 plus doxorubicin (1:1 ratio). Cells were subsequently washed, fixed with methanol and stained with 0.2% crystal violet for 1 h. Cells were counted from atleast 3 random fields for the colony number under an inverted microscope and photographed at 20× magnifications.\nDrug Potentiation Assay. Briefly, MDA-MB-231 cells were exposed to 200 nM of compound 5, 200 nM of doxorubicin alone and/or combination of both (1:1 ratio) for 48 h in cell viability (MTT) assay, for 5 days in a colony formation assay and subjected to western blotting for the expression of GRP78 and Par-4. The ability of 5 to enhance cell killing was expressed as potentiation index (PI), which was the ratio of the […]. Thus, PI>1 indicates potentiation and PI<1 indicates protection."}}, "note": "Several values for one entry are separate records, joined by “and”; a condition that tells them apart may be missing. Equal values may be shown once. Entries after “also recorded” stand apart in the source; their conditions may differ."}
{"smiles": "CCCCCCCC(c1oc(CO)cc(=O)c1O)c1c[nH]c2ccccc12", "note": "(centres unmarked) [Compound 5, 2-{1-(1H-indol-3-yl)octyl}-3-hydroxy-6-(hydroxymethyl)-4H-pyran-4-one]", "values": [{"measurement": "expression of E-cadherin", "setting": "E-cadherin", "value": "induced significantly"}, {"measurement": "IC50", "setting": "[1]; Homo sapiens, FR2, MTT, 44 h + 4 h, mean ± SD of three experiments", "value": 74, "unit": "µM"}, {"measurement": "toxicity towards normal breast epithelial (fR2) cells", "setting": "[1]; in words", "value": "non-toxic; also recorded: less/non-toxic"}, {"measurement": "decrease in metastatic lung nodules", "setting": "[2]; 30 mg/kg b.w. i.p., alternate days for two weeks", "value": 84.5, "unit": "%"}, {"measurement": "inhibition in tumor growth", "setting": "[2]; 30 mg/kg b.w. i.p., alternate days for two weeks, vs normal saline", "value": "79.2% and 67%"}, {"measurement": "colony formation by 4T1 cells in lung suspension", "setting": "[2]; 30 mg/kg b.w., compared to 1 and vehicle treated animals", "value": "inhibited drastically"}, {"measurement": "potentiation index (PI)", "setting": "MDA-MB-231 cells; 200 nM 5 plus 200 nM doxorubicin (1:1), 5 days, colony formation", "value": 5.2}, {"measurement": "potentiation of the effect of doxorubicin", "setting": "MDA-MB-231 cells; summary statement, combination with doxorubicin in breast cancer cells", "value": "≤ 6", "unit": "fold"}]}
